Values joined by “and” are separate entries in the source; they are usually repeats but may differ in a detail not shown here. Identical values can stand only once. “Also recorded” adds a separate entry of the source.

Assay [1] deals with T1, AtPEPR2 (Arabidopsis thaliana, UniProt Q9FZ59).
T1 construct: the AtPEPR2 coding region was fused to the CaMV 35S promoter and introduced into tobacco suspension-cultured cells; expressed in transfected cells; host or cells: tobacco suspension-cultured cells, transformed by Agrobacterium, kanamycin-selected
T1 sequence (Q9FZ59 27-1088): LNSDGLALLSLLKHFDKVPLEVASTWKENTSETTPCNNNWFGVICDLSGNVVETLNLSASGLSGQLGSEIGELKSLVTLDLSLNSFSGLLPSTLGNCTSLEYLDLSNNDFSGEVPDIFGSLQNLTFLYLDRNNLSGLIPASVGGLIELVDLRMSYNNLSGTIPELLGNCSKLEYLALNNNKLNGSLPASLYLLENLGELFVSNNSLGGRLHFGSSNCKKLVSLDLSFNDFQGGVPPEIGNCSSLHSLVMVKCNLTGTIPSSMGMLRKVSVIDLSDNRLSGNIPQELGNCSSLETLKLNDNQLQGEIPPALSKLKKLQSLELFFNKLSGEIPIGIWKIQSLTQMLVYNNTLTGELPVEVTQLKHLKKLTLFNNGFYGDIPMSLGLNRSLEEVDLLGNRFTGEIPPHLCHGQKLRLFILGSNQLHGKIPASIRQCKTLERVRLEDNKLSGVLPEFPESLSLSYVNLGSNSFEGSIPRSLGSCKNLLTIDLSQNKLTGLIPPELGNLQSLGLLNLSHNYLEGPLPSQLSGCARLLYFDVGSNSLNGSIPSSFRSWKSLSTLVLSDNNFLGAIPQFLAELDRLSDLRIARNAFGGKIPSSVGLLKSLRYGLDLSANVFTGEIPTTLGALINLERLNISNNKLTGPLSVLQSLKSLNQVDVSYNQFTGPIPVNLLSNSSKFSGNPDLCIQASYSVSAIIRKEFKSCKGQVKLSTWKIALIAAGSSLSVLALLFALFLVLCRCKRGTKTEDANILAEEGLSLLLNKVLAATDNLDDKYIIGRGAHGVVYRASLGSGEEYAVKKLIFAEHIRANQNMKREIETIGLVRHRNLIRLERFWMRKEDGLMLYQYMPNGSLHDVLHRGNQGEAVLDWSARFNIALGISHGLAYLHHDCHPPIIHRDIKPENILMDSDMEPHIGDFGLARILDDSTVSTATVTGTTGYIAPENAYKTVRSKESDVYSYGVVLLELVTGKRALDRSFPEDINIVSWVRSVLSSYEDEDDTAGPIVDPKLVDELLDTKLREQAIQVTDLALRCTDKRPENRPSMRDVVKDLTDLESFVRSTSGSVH
The assay can be described thus: Medium alkalinization of transgenic tobacco cells expressing AtPEPR2. The class given is cell-based. As for the experimental part: To clarify whether AtPEPR2 binds to AtPep1, the AtPEPR2 coding region was fused to the CaMV 35S promoter and introduced into tobacco suspension-cultured cells by Agrobacterium. Tobacco cells expressing AtPEPR1 and GUS genes were also created as positive and negative controls, respectively. […] These transgenic lines were analyzed for alkalinizing activity as previously described (Pearce et al., Proc. Natl. Acad. Sci. USA 98, 12843-12847, 2001).
The response to all AtPep peptides in transgenic tobacco cells expressing either AtPEPR1 or AtPEPR2 was analyzed by the medium alkalinization assay.

Assay [2] concerns Arabidopsis suspension cultured cells. The assay is described as follows: Alkalinization assay with Arabidopsis suspension cultured cells. The format is cell-based, Arabidopsis thaliana. The following applies: Arabidopsis suspension cultured cells, pH of media after 20 min. On the procedure:
For the alkalinization assay, cells suspensions are grown in a volume of 40 ml in a 125 ml flask. Tobacco and Arabidopsis cells are typically grown for 3-5 days before use. Tomato cells are typically grown for 4-7 days before use. Soybean cells are generally grown for 3-7 days before use. Preferably, cells are in mid to log or log phase when they are to be used for the alkalinization assay. A 1 ml pipette tip with the end cut off (to prevent clogging of the tip with the cells) is used to aliquot 1 ml of the cells from the suspension into a well in a 24-well culture cluster plate. The flask is swirled between aliquots to ensure that the cells remain evenly dispersed throughout the cell suspension and an roughly equivalent number of cells is provided to each well. The plate(s) are then shaken at 160 rpm for 1 hour. Small aliquots ([…]) of extracted peptide fractions are then added to the wells. After 20 min, the pH of the cell media is measured and recorded.
Alkalinization Assay. Arabidopsis suspension cells were grown with shaking in the dark in 125 mL flasks, using 40 mL NT media as previously described (Pearce et al. Proc. Natl. Acad. Sci. USA 98:12843-12847, 2001). The cells were transferred weekly (2.5 mL) and used for assays 3-5 days after transfer. One mL aliquots of cells were transferred to wells of 24-well culture plates and allowed to equilibrate for one hour while agitated on a rotary shaker at 160 rpm. Aliquots of 1-10 μL from extracts or fractions eluted from HPLC columns were added to cells and the pH of the media was monitored after 20 min.
Alkalinization assay. Medium alkalinization activity of Arabidopsis suspension cultured cells by AtPep1 analogs was analyzed as previously described for systemin (Pearce et al., Science 253:895-897, 1991), RALF (Pearce et al. Proc. Natl. Acad. Sci. USA 98:12843-12847, 2001), HypSys peptides (Pearce and Ryan. J. Biol. Chem. 278:30044-30050, 2003; Pearce et al., Nature 411:817-820, 2001), and AtPep1 (supra). The alkalinization activity of azido-Cys-AtPep1 were carried out after incubation the analog with cells in darkness for 10 min, when the pH was recorded.
Analogs of AtPep1 from the C-terminus of AtPep1 were synthesized and assayed in the alkalinization assay. One mL aliquots of 4 day old Arabidopsis cells were allowed to equilibrate on an orbital shaker at 180 rpm for one hour. A 10 μL aliquot of each peptide solution was added to the cells. Peptide concentrations of 0.25 nM, 2.5 nM, and 25 nM were tested. After 20 min, the pH of the media was recorded.
The 15-mer from the carboxy-terminus of AtPep1 ([…] (SEQ ID NO: 78)) was substituted with alanine at each position to assess which amino acids were necessary for the alkalinizing activity. […] The set of substituted 15-mer peptides was assayed using four-day-old Arabidopsis cells. […] of each peptide (2.5 pmoles) was added to 1 ml of cells to make a final concentration of 2.5 nM. After 20 min, the pH of the media was recorded. The data is the average of three separate experiments.

The mark [3] stands for this setting: AtPEPR2 expressing tobacco cells.

On to H-ATKVKAKQRGKEKVSSGRPGQHN-OH [AtPep1], for which, in assay [1], the EC50 is approximately 0.25 nM. Besides, in assay [1] (setting [3]), the “alkalinization of the medium” value is recorded as “caused alkalinization of the media”; the maximal change was 1-1.2 pH units and 1.2 pH units. In addition, the “activity in the alkalinization assay” value in assay [2] is “at sub-nanomolar concentrations, to cause an alkalinization response; also recorded: as active as the native AtPep1; also recorded: identical activities as the native peptides”. Moreover, the EC50 in assay [2] (read-out: half-maximal activity in the alkalinization assay) is 0.25 nM.

These data come from patent US8686224B2, “Plant defense signal peptides” (priority 2005, dated 2014).
